# Target: Metabotropic glutamate receptor 5 (Rattus norvegicus, UniProt P31424)
# Test: Binding Assay: Binding assays were performed as described in Schaffhauser H, Richards J G, Cartmell J, Chaboz S, Kemp J A, Klingelschmidt A, Messer J, Stadler H, Woltering T and Mutel V (1998) In vitro binding characteristics of a new selective group II metabotropic glutamate receptor radioligand, [3H]LY354740, in rat brain. Mol Pharmacol 53:228-233) at room temperature with slight modifications.
# Assay type: tissue-based
# Chain of Metabotropic glutamate receptor 5 (P31424 whole entry): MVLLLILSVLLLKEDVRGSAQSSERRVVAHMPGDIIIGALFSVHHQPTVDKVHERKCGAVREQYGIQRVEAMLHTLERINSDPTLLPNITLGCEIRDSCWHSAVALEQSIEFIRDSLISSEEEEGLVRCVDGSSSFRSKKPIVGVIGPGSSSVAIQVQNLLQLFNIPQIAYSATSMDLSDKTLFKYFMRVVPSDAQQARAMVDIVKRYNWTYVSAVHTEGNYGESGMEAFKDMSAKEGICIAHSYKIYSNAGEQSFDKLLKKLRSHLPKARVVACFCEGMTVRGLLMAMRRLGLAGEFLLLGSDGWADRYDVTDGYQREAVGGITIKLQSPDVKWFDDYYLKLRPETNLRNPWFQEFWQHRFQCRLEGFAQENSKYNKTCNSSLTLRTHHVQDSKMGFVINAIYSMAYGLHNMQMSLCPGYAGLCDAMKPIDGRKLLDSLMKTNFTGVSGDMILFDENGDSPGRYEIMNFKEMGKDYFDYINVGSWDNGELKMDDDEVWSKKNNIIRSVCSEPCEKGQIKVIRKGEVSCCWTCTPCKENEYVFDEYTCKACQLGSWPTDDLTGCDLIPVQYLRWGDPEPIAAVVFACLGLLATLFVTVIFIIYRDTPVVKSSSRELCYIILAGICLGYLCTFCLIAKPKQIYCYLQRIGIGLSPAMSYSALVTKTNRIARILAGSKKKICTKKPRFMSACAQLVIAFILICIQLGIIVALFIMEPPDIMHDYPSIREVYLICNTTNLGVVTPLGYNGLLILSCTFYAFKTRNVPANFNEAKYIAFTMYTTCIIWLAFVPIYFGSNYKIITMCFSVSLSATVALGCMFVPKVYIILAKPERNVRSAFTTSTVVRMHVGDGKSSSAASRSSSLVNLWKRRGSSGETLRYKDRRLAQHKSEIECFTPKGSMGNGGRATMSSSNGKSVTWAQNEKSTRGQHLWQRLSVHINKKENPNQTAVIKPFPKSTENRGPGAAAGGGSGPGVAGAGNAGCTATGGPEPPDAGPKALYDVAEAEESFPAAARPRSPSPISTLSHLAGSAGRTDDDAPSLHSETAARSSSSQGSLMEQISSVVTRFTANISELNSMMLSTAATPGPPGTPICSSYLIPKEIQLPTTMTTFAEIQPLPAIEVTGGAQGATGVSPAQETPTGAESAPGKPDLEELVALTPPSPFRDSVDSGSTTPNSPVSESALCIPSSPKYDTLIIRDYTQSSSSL
structure (smiles),measurement,value
Cc1nc(C#Cc2ccc(-c3ccccc3C#N)nc2)cs1,Ki,2.6 nM
